In US20250057958A1, “CYTOTOXICITY TARGETING CHIMERAS FOR CCR2-EXPRESSING CELLS” (GLAXOSMITHKLINE INTELLECTUAL PROPERTY DEVELOPMENT LIMITED, priority 2022, published 2025):

How the values were obtained:
[1] = target: T1, CHOK1 cells engineered to overexpress human CCR2 (Homo sapiens, UniProt P41597); test: Antibody dependent cellular cytotoxicity (ADCC) reporter assay; assay type: cell-based; settings: with anti-cotinine antibody (SEQ ID NO: 11/12, human IgG1 Fc S239D/I332E); Jurkat FcγRIIIa NFAT-luciferase reporter cells; 12-18 hours; average if more than one run; read-out: ADCC Reporter Assay pEC50 (converted)
T1 construct: expressed in transfected cells; host or cells: CHOK1 cells
Description: An antibody dependent cellular cytoxocity reporter assay was conducted using the following four assay components: (i) ARM compound of Formula (I) targeting CCR2 (concentrations ranging from 1 pM to 10 μM) (ii) anti-cotinine antibody having a heavy chain sequence of SEQ ID NO: 11 and a light chain sequence of SEQ ID NO: 12 (rabbit variable region with human IgG1 Fc domain containing a DE mutation (S239D/I332E)) (concentrations ranging from 0.01 μg/mL to 200 μg/mL); (iii) target cells: CHOK1 cells engineered to overexpress either human CCR2 (typically 1000-20,000 cells perwell) and (iv) reporter cells: Jurkat cells engineered to express FcγRIIIa with the reporter gene luciferase under the control of the NFAT promoter (typically 3000-75,000 cells per well). Reagents were combined in a final volume of 20 μL in a 384—well tissue culture treated plate. All four assay components were incubated together for about 12-18 hours. Thereafter, BioGlo Detection reagent (Promega) was added to the wells to lyse the cells and provide a substrate for the luciferase reporter protein. Luminescence signal was measured on a microplate reader and signal:background was calculated by dividing the signal of a test well by the signal obtained when no ARM compound of Formula (I) was added. EC50 calculations were done using Graphpad Prism Software, specifically a nonlinear regression curve fit (Y=Bottom+(Top−Bottom)/(1+10 ^((Log EC50−X)*HillSlope))).
ARMs compounds of Formula (I) of the invention were tested for ADCC activity in the above assay in or more experimental runs and the results are shown in Table 3 below. Potency of the compounds of Formula (I) of the invention is reported as a pEC50 value. The pEC50 value is the negative log of the EC50 value, wherein the EC50 value is the half maximal effective concentration measured in molar (M). For compounds tested in more than one experimental run, the pEC50 value is reported as an average.

[2] = target: human alpha1 nicotinic acetylcholine (nACh) receptor (Homo sapiens, UniProt P02708+Q07001); test: Nicotinic acetylcholine receptor antagonism assay (IONFlux automated patch clamp); assay type: cell-based; settings: for Emax at 33.3 µM: maximum percentage antagonism at highest concentration tested, read-out: Maximum Response (%); for IC50: nAChR antagonism, stimulated with ACh, average if more than one run
Description: Cells expressing human alpha1 nicotinic acetylcholine (nACh) receptor (nAChR) were washed and dissociated using Trypsin containing buffer. Cells were then washed and seeded at a density of 3-5 million cells/mL and allowed to grow for 3 days. […] The receptor was then stimulated via addition of acetylcholine (ACh) and activation of the receptor was monitored via the IONFlux automated patch clamp system. IonFlux Data Analyzer software was utilized to perform leak subtraction and measure (min) peak current amplitude.
Data processing: (1) Current values recorded for vehicle only applications in individual traps/patterns were subtracted from corresponding current amplitude values for control, test article and control+test article. (2) Control response was calculated as % of the average response of the 3rd out of total 3 ACh (10 mM) applications alone. In rare situations, if the 3rd ACh response was obscured due to technical artifacts, the 2nd and/or 1st ACh (10 mM) application was considered as control. The peak current amplitude generated in the presence of each test article concentration was then used to calculate the % inhibition as compared to control response (10 mM ACh alone). These estimates were further corrected for vehicle response and run down corrected by normalizing with time matched control responses (10 mM ACh alone). The corrected percentages were then fit with a non-linear function in GraphPad Prism 6 (or later versions) to determine the IC50.
Exclusion criteria: (i) any n's with poor recording quality, (ii) control current amplitude <500 pA or (iii) significant outliers, as determined by the Grubbs' test.
ARMs compounds of Formula (I) of the invention were tested for antagonism of the nAChR in the above assay in […] experimental runs and the results are shown in Table 5 below. Antagonistic activity of the compounds of Formula (I) of the invention is reported as an IC50 value (half maximal inhibitory concentration) and the maximum percentage antagonism observed at the highest concentration of compound of Formula (I) tested, as indicated in Table 5. For compounds tested in more than one experimental run, the IC50 value is reported as an average.

human alpha1 nicotinic acetylcholine (nACh) receptor, sequence (P02708 21-457): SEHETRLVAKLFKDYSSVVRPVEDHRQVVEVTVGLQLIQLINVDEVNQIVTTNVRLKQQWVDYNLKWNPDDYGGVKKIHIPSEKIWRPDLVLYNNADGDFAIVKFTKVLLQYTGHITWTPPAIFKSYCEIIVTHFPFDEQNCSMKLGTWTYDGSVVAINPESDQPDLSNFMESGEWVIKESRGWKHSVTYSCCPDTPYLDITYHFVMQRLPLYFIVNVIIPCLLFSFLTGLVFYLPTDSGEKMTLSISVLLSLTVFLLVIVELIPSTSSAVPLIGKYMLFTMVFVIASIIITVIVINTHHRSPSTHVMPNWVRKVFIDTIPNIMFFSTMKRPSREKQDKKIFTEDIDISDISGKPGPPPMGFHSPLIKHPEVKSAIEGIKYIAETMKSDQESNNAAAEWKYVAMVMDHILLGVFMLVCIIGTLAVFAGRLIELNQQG
human alpha1 nicotinic acetylcholine (nACh) receptor, sequence (P11230 24-501 partner): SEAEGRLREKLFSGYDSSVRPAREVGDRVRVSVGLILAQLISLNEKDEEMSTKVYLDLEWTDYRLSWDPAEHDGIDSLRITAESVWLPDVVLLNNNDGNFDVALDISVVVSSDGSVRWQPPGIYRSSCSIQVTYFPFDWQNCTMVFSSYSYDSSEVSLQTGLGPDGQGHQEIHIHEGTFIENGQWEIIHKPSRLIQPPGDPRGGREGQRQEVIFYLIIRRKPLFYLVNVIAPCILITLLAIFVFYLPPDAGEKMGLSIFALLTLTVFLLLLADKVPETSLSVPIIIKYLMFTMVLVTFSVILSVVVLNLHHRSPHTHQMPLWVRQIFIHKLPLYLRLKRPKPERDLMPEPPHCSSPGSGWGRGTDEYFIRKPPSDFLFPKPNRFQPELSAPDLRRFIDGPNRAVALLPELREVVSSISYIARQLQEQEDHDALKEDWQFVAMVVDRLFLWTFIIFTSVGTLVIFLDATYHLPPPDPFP
human alpha1 nicotinic acetylcholine (nACh) receptor, sequence (Q07001 22-517): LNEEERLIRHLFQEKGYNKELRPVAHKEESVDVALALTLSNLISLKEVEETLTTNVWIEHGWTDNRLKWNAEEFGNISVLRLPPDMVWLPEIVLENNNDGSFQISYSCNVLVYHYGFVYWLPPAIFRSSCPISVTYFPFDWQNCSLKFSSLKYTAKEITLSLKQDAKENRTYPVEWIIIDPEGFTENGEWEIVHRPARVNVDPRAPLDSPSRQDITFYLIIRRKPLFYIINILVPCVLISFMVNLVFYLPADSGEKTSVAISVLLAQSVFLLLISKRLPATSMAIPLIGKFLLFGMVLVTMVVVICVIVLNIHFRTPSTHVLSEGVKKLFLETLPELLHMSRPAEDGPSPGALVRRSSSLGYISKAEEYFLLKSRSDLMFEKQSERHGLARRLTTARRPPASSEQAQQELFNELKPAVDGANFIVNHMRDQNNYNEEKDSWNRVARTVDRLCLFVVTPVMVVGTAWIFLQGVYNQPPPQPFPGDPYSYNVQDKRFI

Compound | EC50 [1] | Emax at 33.3 µM [2] | IC50 [2]
CC(=O)N[C@@H]1C[C@H](NC(C)(C)C)CC[C@@H]1N1CC[C@H](Nc2nc(CCCCNC(=O)[C@H]3CC[C@H](NC(=O)CCCO[C@H]4CC[C@H](OCCNC(=O)[C@H]5CC(=O)N(C)[C@@H]5c5cccnc5)CC4)CC3)nc3ccc(C(F)(F)F)cc23)C1=O [Example 3, (2S,3S)-N-(2-(((1R,4S)-4-(4-(((1S,4R)-4-((4-(4-(((S)-1-((1S,2R,4R)-2-Acetamido-4-(tert-butylamino)cyclohexyl)-2-oxopyrrolidin-3-yl)amino)-6-(trifluoromethyl)quinazolin-2-yl)butyl)carbamoyl)cyclohexyl)amino)-4-oxobutoxy)cyclohexyl)oxy)ethyl)-1-methyl-5-oxo-2-(pyridin-3-yl)pyrrolidine-3-carboxamide] | 0.158 nM | 38% | > 33300 nM
CC(=O)N[C@@H]1C[C@H](NC(C)(C)C)CC[C@@H]1N1CC[C@H](Nc2nc([C@H]3CC[C@@H](NC(=O)[C@H]4CC[C@H](NC(=O)CCCO[C@H]5CC[C@H](OCCNC(=O)[C@H]6CC(=O)N(C)[C@@H]6c6cccnc6)CC5)CC4)CC3)nc3ccc(C(F)(F)F)cc23)C1=O [Example 10, (2S,3S)-N-(2-(((1R,4S)-4-(4-(((1R,4R)-4-(((1R,4S)-4-(4-(((S)-1-((1S,2R,4R)-2-Acetamido-4-(tert-butylamino)cyclohexyl)-2-oxopyrrolidin-3-yl)amino)-6-(trifluoromethyl)quinazolin-2-yl)cyclohexyl)carbamoyl)cyclohexyl)amino)-4-oxobutoxy)cyclohexyl)oxy)ethyl)-1-methyl-5-oxo-2-(pyridin-3-yl)pyrrolidine-3-carboxamide] | 0.251 nM | 28% | > 33300 nM
CC(=O)N[C@@H]1C[C@H](NC(C)(C)C)CC[C@@H]1N1CC[C@H](Nc2nc([C@H]3CC[C@H](NC(=O)[C@H]4CC[C@H](NC(=O)CCCO[C@H]5CC[C@H](OCCNC(=O)[C@H]6CC(=O)N(C)[C@@H]6c6cccnc6)CC5)CC4)CC3)nc3ccc(C(F)(F)F)cc23)C1=O [Example 11, (2S,3S)-N-(2-(((1R,4S)-4-(4-(((1S,4R)-4-(((1S,4R)-4-(4-(((S)-1-((1S,2R,4R)-2-Acetamido-4-(tert-butylamino)cyclohexyl)-2-oxopyrrolidin-3-yl)amino)-6-(trifluoromethyl)quinazolin-2-yl)cyclohexyl)carbamoyl)cyclohexyl)amino)-4-oxobutoxy)cyclohexyl)oxy)ethyl)-1-methyl-5-oxo-2-(pyridin-3-yl)pyrrolidine-3-carboxamide] | 0.158 nM | 47% | > 33300 nM
